Test results taken from US12274684B2, “Treatment of vasculopathy with prostacyclin and mesenchymal stem cells” (United Therapeutics Corporation, priority 2013, dated 2025).

System: human bone marrow MSC
Experiment: Microarray gene expression analysis of MSC (Illumina Human HT12 Expression BeadChip)
Type: cell-based
Details: Tre(+) 250 μg/mL, 24 h
Procedure: Human bone marrow MSC were expanded and seeded into six (6) T225 flasks using standard growth medium (Table 1). At 95-99% confluency, cells were thoroughly washed with PBS. Three (3) flasks were replenished with basal media containing 250 μg/mL treprostinil, (+)Tre, and the remaining three (3) flasks were replenished with unsupplemented basal media, (−)Tre. After 24 hours of culture, representative images were captured from (+) Tre and (−) Tre cultures. Conditioned media was collected from each replicate, divided into two samples of appropriate volumes, and analyzed separately for: 1) secreted proteins (Myriad RBM InflammationMAP® 1.0) and 2) exosome RNA content. Cells were lysed directly from culture flasks, processed for total RNA isolation, and analyzed for gene expression by microarray (Illumina Human HT12 Expression BeadChip). Microarray gene expression analysis was also performed on MSC from cultures without (−) or with (+) 250 ug/mL treprostinil. Three (3) biological replicates from each condition were analyzed. Of the 77,612 sequences identified among all replicates, only 24,273 were detected above the arbitrary background of 50 counts. 2,984 RNA sequences were unique to Tre(−) cultures, while 1,781 RNA sequences were unique to Tre(+) cultures (panel A). Genes detected in both conditions were further analyzed for differential expression (panel). […] Genes that are expressed only in Tre(−) cultures (that is to say, completely turned off in the Tre(+) cultures) are shown in Table 5.

CCCCC[C@H](O)CC[C@@H]1[C@H]2Cc3cccc(OCC(=O)O)c3C[C@H]2C[C@H]1O [treprostinil]
CLDN11 (NM_005602) expression, AVG (Tre(−) AVG 543): 13 counts | FAM198B (NM_001128424) expression, AVG (Tre(−) AVG 559): 15 counts | SLC7A8 (NM_182728) expression, AVG (Tre(−) AVG 613): 43 counts | ASPM (NM_018136) expression, AVG (Tre(−) AVG 625): 26 counts | CPA4 (NM_016352) expression, AVG (Tre(−) AVG 631): 53 counts | CELF1 (NM_001172640) expression, AVG (Tre(−) AVG 644): 59 counts | TCF12 (NM_207040) expression, AVG (Tre(−) AVG 648): 40 counts | SCN2A (NM_021007) expression, AVG (Tre(−) AVG 652): 20 counts | ASPH (NM_001164754) expression, AVG (Tre(−) AVG 658): 37 counts | CIT (NM_001206999) expression, AVG (Tre(−) AVG 661): 9 counts | VEGFA (NM_001171626) expression, AVG (Tre(−) AVG 664): 7603 counts | ANLN (NM_018685) expression, AVG (Tre(−) AVG 669): 57 counts | ST8SIA1 (NM_003034) expression, AVG (Tre(−) AVG 731): 45 counts | TPM1 (NM_001018007) expression, AVG (Tre(−) AVG 731): 36 counts | FAM84A (NM_145175) expression, AVG (Tre(−) AVG 733): 45 counts | SPATA20 (NM_022827) expression, AVG (Tre(−) AVG 733): 15 counts | PRRT2 (NM_145239) expression, AVG (Tre(−) AVG 744): 36 counts | LRRC17 (NM_001031692) expression, AVG (Tre(−) AVG 746): 22 counts | ANGPT1 (NM_001146) expression, AVG (Tre(−) AVG 780): 53 counts | ANK3 (NM_001204403) expression, AVG (Tre(−) AVG 811): 57 counts | SNX14 (NM_153816) expression, AVG (Tre(−) AVG 813): 18 counts | RCAN1 (NM_203418) expression, AVG (Tre(−) AVG 814): 8908 counts | OLFML1 (NM_198474) expression, AVG (Table 5) (Tre(−) AVG 816): 42 counts | RASA4 (NM_006989) expression, AVG (Tre(−) AVG 857): 11 counts | GDF5 (NM_000557) expression, AVG (Tre(−) AVG 883): 71 counts | MAP1B (NM_005909) expression, AVG (Tre(−) AVG 886): 42 counts | C13orf33 (NM_032849) expression, AVG (Tre(−) AVG 918): 19296 counts | MEOX2 (NM_005924) expression, AVG (Tre(−) AVG 982): 31 counts | MYLK (NM_053025) expression, AVG (Tre(−) AVG 991): 0 counts | SLC14A1 (NM_015865) expression, AVG (Table 5) (Tre(−) AVG 1036): 19 counts | FLG (NM_002016) expression, AVG (Tre(−) AVG 1052): 28 counts | ARPC4 (NM_001024960) expression, AVG (Tre(−) AVG 1150): 12 counts | RCAN2 (NM_001251974) expression, AVG (Tre(−) AVG 1218): 105 counts | EPB41L2 (NM_001199389) expression, AVG (Tre(−) AVG 1272): 113 counts | SLC2A12 (NM_145176) expression, AVG (Tre(−) AVG 1281): 105 counts | MEST (NM_002402) expression, AVG (Tre(−) AVG 1283): 85 counts | METTL7A (NM_014033) expression, AVG (Tre(−) AVG 1299): 109 counts | S100A4 (NM_002961) expression, AVG (Tre(−) AVG 1312): 125 counts | RBFOX2 (NM_001031695) expression, AVG (Tre(−) AVG 1316): 10 counts | ACTN1 (NM_001130005) expression, AVG (Tre(−) AVG 1459): 115 counts | OLFML2B (NM_015441) expression, AVG (Tre(−) AVG 1465): 70 counts | PRELP (NM_002725) expression, AVG (Tre(−) AVG 1474): 114 counts | COL21A1 (NM_030820) expression, AVG (Tre(−) AVG 1569): 57 counts | SLC14A1 (NM_015865) expression, AVG (Table 4) (Tre(−) AVG 1621): 88 counts | DDAH1 (NM_001134445) expression, AVG (Tre(−) AVG 1685): 133 counts | LMOD1 (NM_012134) expression, AVG (Tre(−) AVG 1722): 65 counts | OLFML1 (NM_198474) expression, AVG (Table 4) (Tre(−) AVG 1734): 140 counts | MXRA5 (NM_015419) expression, AVG (Tre(−) AVG 1759): 54 counts | DKFZp547J0510 (CDNA FLJ42650 fis, clone BRACE3027478) expression, AVG (Tre(−) AVG 1932): 148 counts | PLIN2 (NM_001122) expression, AVG (Tre(−) AVG 1976): 92927 counts | SYNPO2 (NM_001128933) expression, AVG (Tre(−) AVG 2551): 104 counts | ASPH (NM_004318) expression, AVG (Tre(−) AVG 2719): 1 counts | SREBF1 (NM_001005291) expression, AVG (Tre(−) AVG 2936): 12 counts | SLC3A2 (NM_001013251) expression, AVG (Tre(−) AVG 3190): 33526 counts | PDE5A (NM_033430) expression, AVG (Tre(−) AVG 3361): 222 counts | MEST (NM_177525) expression, AVG (Tre(−) AVG 3552): 298 counts | RND3 (NM_005168) expression, AVG (Tre(−) AVG 4013): 51756 counts | ISLR (NM_005545) expression, AVG (Tre(−) AVG 5533): 548 counts | PALLD (NM_001166109) expression, AVG (Tre(−) AVG 9809): 753 counts | CXCL12 (NM_199168) expression, AVG (Tre(−) AVG 10574): 671 counts | CTGF (NM_001901) expression, AVG (Tre(−) AVG 23012): 741 counts | COL6A3 (NM_004369) expression, AVG (Tre(−) AVG 54326): 4635 counts
